The values that follow come from US6613340B2, “Substantive hydrophobic cationic UV-absorbing compounds” (Galaxy Surfactants Ltd., priority 2001, dated 2003).

The nature of this data set: UV absorption (molar extinction coefficient). Format: physicochemical. The settings on record: in methanol. As to the method:
Ethyl p-methoxy cinnamate (206.0 g, 1.0 mole), N,N-dimethylpropyldiamine (306.0 g, 3.0 mole) and sodium methoxide (2.0 g) were charged in a pressure reactor. The air inside the reactor was flushed out by purging of nitrogen. The reaction mixture was then stirred at 180° C. (this generated pressure of 18 kg/cm^2) for 36 hours. The progress of reaction was monitored by disappearance of ethyl p-methoxy cinnamate on chromatography (TLC and HPLC). The TLC was performed on aluminium coated silica gel plates (Merck-60-F-254) and viewed with a UV lamp at 254 nm. HPLC was performed using reversed phase technique on a C-18 bonded (octadecyl silane) column and 60% aqueous methanol as mobile phase (1.0 ml/min) and detection at 280 nm. The excess amine was removed under vacuum.

Take `COc1ccc(C=CC(=O)NCCCN(C)C)cc1` [p-methoxy cinnamidopropyldimethylamine]: the “molar extinction coefficient, ε” value (at 290 nm, in M-1cm-1 (unit assumed)) is 24,224.

On to `CCCCCCCCCCCC[N+](C)(C)CCCNC(=O)C=Cc1ccc(OC)cc1.Cc1ccc(S(=O)(=O)[O-])cc1` [p-methoxy cinnamidopropyldimethyllauryl ammonium tosylate], for which the “molar extinction coefficient, ε” value (at λmax 310 nm) is recorded as 25,000.
